{
  "source": "patent US4753802A",
  "about": "(Alza Corporation, priority 1986, dated 1988)",
  "key": {"[1]": {"assay": "Osmotic pressure of saturated verapamil hydrochloride solution / of the blend of verapamil plus osmotic solute (vapor pressure osmometry)", "type": "physicochemical", "conditions": "for π, osmotic pressure of the blend of Sd plus So: verapamil plus the osmotic solute named in the line", "from_the_text": "(§1) The results of the formulation are given in the accompanying table."}, "[2]": {"assay": "Solubility of verapamil and of osmotic solutes in a common aqueous fluid", "from_the_text": "as §1"}, "[3]": {"assay": "Cumulative amount of verapamil released over time from formulations with osmotic solutes", "type": "physicochemical", "conditions": "verapamil formulated with osmotic solute at equilibrium ratio", "from_the_text": "as §1"}, "[4]": {"conditions": "in common aqueous fluid with verapamil"}},
  "note": "Counter-ions that a name gives are not always drawn.",
  "data": [
    {"molecule": "O=C(O)CCCCC(=O)O", "note": "[Adipic Acid]", "values": [
      {"measurement": "π, osmotic pressure of the blend of Sd plus So", "setting": "[1]", "value": 13.9, "unit": "atm"}
    ]},
    {"molecule": "O=C1O[C@H]([C@@H](O)CO)C(O)=C1O", "note": "[Ascorbic Acid]", "values": [
      {"measurement": "π, osmotic pressure of the blend of Sd plus So", "setting": "[1]", "value": 76.8, "unit": "atm"}
    ]},
    {"molecule": "O=C[C@H](O)[C@@H](O)[C@@H](O)[C@H](O)CO", "note": "[D-Galactose]", "values": [
      {"measurement": "So, solubility of the osmotic solute", "setting": "[2]; [4]", "value": 457, "unit": "mg/mL"},
      {"measurement": "π, osmotic pressure of the blend of Sd plus So", "setting": "[1]", "value": 87.1, "unit": "atm"}
    ]},
    {"molecule": "O=C(O)CCC(=O)O", "note": "[Disodium Succinate]", "values": [
      {"measurement": "π, osmotic pressure of the blend of Sd plus So", "setting": "[1]", "value": 36.6, "unit": "atm"}
    ]},
    {"molecule": "O=C(O)/C=C/C(=O)O", "note": "[Fumaric Acid]", "values": [
      {"measurement": "So, solubility of the osmotic solute", "setting": "[2]; common aqueous fluid", "value": 77, "unit": "mg/mL"},
      {"measurement": "π, osmotic pressure of the blend of Sd plus So", "setting": "[1]", "value": 21.4, "unit": "atm"}
    ]},
    {"molecule": "COc1ccccc1OCC(O)CO", "note": "(stereo not drawn) [Guaifenesin, reference compound]", "values": [
      {"measurement": "So, solubility of the osmotic solute", "setting": "[2]; common aqueous fluid", "value": 81, "unit": "mg/mL"}
    ]},
    {"molecule": "O[C@H]1[C@H](O)[C@@H](O)[C@H](O)[C@@H](O)[C@H]1O", "note": "[Inositol]", "values": [
      {"measurement": "cumulative amount of verapamil released over time", "setting": "[3]", "value": "insufficient cumulative amount of verapamil released over time"},
      {"measurement": "π, osmotic pressure of the blend of Sd plus So", "setting": "[1]", "value": 20.6, "unit": "atm"}
    ]},
    {"molecule": "O=C[C@H](O)[C@@H](O)[C@@H](O)CO", "note": "[L-Arabinose]", "values": [
      {"measurement": "So, solubility of the osmotic solute", "setting": "[2]; common aqueous fluid", "value": 473, "unit": "mg/mL"},
      {"measurement": "π, osmotic pressure of the blend of Sd plus So", "setting": "[1]", "value": 110.3, "unit": "atm"}
    ]},
    {"molecule": "O=C(O)CC(O)C(=O)O", "note": "(stereo not drawn) [Malic Acid]", "values": [
      {"measurement": "So, solubility of the osmotic solute", "setting": "[2]; [4]", "value": 436, "unit": "mg/mL"}
    ]},
    {"molecule": "OC[C@@H](O)[C@@H](O)[C@H](O)[C@H](O)CO", "note": "[Mannitol]", "values": [
      {"measurement": "So, solubility of the osmotic solute", "setting": "[2]; common aqueous fluid", "value": 219, "unit": "mg/mL"},
      {"measurement": "π, osmotic pressure of the blend of Sd plus So", "setting": "[1]", "value": 42.8, "unit": "atm"}
    ]},
    {"molecule": "O=C(O)C(O)C(O)C(=O)O", "note": "(stereo not drawn) [Sodium Tartrate]", "values": [
      {"measurement": "π, osmotic pressure of the blend of Sd plus So", "setting": "[1]", "value": 100.0, "unit": "atm"}
    ]},
    {"molecule": "O=C(O)CCC(=O)O", "note": "[Succinic Acid]", "values": [
      {"measurement": "π, osmotic pressure of the blend of Sd plus So", "setting": "[1]", "value": 22.9, "unit": "atm"}
    ]},
    {"molecule": "COc1ccc(CCN(C)CCCC(C#N)(c2ccc(OC)c(OC)c2)C(C)C)cc1OC", "note": "(stereo not drawn) [Verapamil-HCl, verapamil hydrochloride, reference compound]", "values": [
      {"measurement": "osmotic pressure of a saturated aqueous solution", "setting": "[1]; at 37° C., vapor pressure osmometry", "value": 11, "unit": "atm"},
      {"measurement": "π, osmotic pressure", "setting": "[1]; verapamil-HCl alone", "value": 10.9, "unit": "atm"},
      {"measurement": "π, osmotic pressure", "setting": "[1]; verapamil-HCl in AGF", "value": 13.0, "unit": "atm"},
      {"measurement": "π, osmotic pressure", "setting": "[1]; verapamil-HCl in AIF", "value": 13.3, "unit": "atm"}
    ]},
    {"molecule": "COc1ccc(CCN(C)CCCC(C#N)(c2ccc(OC)c(OC)c2)C(C)C)cc1OC", "note": "(stereo not drawn) [verapamil, reference compound]", "values": [
      {"measurement": "osmotic pressure of verapamil in the presence of mannitol", "setting": "[1]; in the presence of mannitol", "value": "raised in the presence of mannitol"}
    ]},
    {"molecule": "Insulin: Insulin, listed as osmotic solute in the table", "values": [
      {"measurement": "So, solubility of the osmotic solute", "setting": "[2]; [4]", "value": 50, "unit": "mg/mL"},
      {"measurement": "ST, total solubility of Sd and So", "setting": "[2]; verapamil plus osmotic solute in a common aqueous fluid", "value": 197, "unit": "mg/mL"}
    ]}
  ]
}
